From patent publication US20240174697A1, “PH-ACTIVABLE FLUORESCENT PROBES FOR TARGETING CELL ORGANELLES” (Purdue Research Foundation, priority 2021, published 2024)
“Also recorded” adds a separate entry of the source.

Key:
[1] = Solubility in aqueous medium / pH solutions; type: physicochemical
[2] = Absorption and fluorescence spectra at different pH solutions, pKa; type: physicochemical; details: in a mixture of DMSO: acetonitrile
[3] = as above; type: physicochemical
Experimental: Spectrum recorded at room temperature in PBS buffer at varying pH with 1% (v/v) of DMSO, in all cases probe concentration=10 μM.
Next, we investigated the absorption and fluorescent properties of LysoShine 1, LysoShine 2, and MitoShine (FIG. 2). The LysoShine 1 in different pH solutions of phosphate buffer (1% DMSO in 1M PBS) has an absorption centered around 500 nm and emission maximum at 505 nm with 480 nm excitation. […] We tested the mitochondrial targeting property of MitoShine (max. absorption 505 nm, max. emission 535 nm, excitation 480 nm). […] We also tested the photophysical property of the important synthetic intermediate compound 10 (absorption maximum 505 nm, max, emission 510 nm at excitation 480 nm).

[4] = test system: BV2 microglia; test: MTT assay, metabolic activity of BV2 microglia; type: cell-based, mouse; details: 24 hours
Experimental: (§1) The dried fluorescent probes powders were resuspended in cell grade DMSO to prepare 5 mM stock solutions. This stock was used to make a 1, 5, or 10 μM dilution of the probe in cell culture media. The diluted probe solutions were filtered through 0.22 µm filters before adding to the cells.
Murine microglial BV2 cells (10,000 cells/well) were seeded in a 96 well plate and cultured for 24 hours at 37° C. in a 5% CO2 incubator. Next day, the media was aspirated, and the cells were rinsed twice with PBS (pH 7.4) followed by treatment with 1, 5, or 10 μM of the probe solution made in DMSO (final DMSO concentration=0.05%) for 24 hours in the incubator. Next, the media was aspirated and 20 μL of 5 mg/mL 3-(4,5dimethylthiazol-2-yl)-2,5-diphenyltetrazolium bromide (MTT) solution was added to the cells and then incubated for three hours. The MTT solution was then removed and 100 μL DMSO was added to dissolve the violet formazan crystals. The plate was shaken for 5 minutes using an orbital shaker. The absorbance value at 450 nm was recorded and the percent cell metabolic activity was calculated as the ratio of sample absorbance to control absorbance.

[5] = test system: BV2 microglia; test: LDH cytotoxicity assay on BV2 microglia; type: cell-based, mouse; details: BV2
Experimental: as §1
The cytotoxicity of the fluorescent probes was determined using the Invitrogen™ CyQUANT™ LDH Cytotoxicity Assay kit which measures the release of Lactate dehydrogenase (LDH) from the dead and dying cells. The assay was performed per the manufacturer's protocol. Briefly, BV2 cells (5000 cells/100 μL/well) were seeded in a 96 well plate and cultured for 24 hours at 37° C. in a 5% CO2 incubator. After 24 hours, the media was removed, and the cells were treated with 1, 5, or 10 μM of the probes for 2 or 24 hours of incubation. Three additional wells were treated with the given lysis buffer for 45 minutes (positive control). After the corresponding incubation period, the total LDH release was measured using a fluorescent plate reader. The cells without any probe treatment correspond to spontaneous LDH release and were taken as negative control and the cells treated with the lysis buffer correspond to maximum LDH release. The percentage cytotoxicity of the probes was determined as follows: […]

[6] = test system: BV2 microglia; test: Cellular uptake of the fluorescent probes; type: in vitro ADME, mouse; details: 2 hour treatment, 10 μM, BV2
Experimental: FIG. 7 describes percent uptake efficiency of the fluorescent probes in BV2 microglia. Cellular uptake of the probe at different concentrations after two hours of incubation. The % uptake efficiency was determined as the percentage of probe taken up by cells out of the total amount of probe in the initial incubation solution. Bars depict n=3 data with SD.
Cellular uptake of the florescent probes was determined in-vitro as following: BV2 cells (20,000 cells/well) were seeded in a 96 well plate and cultured overnight at 37° C. in a 5% CO2 incubator. Next day, the media was removed, and the cells were treated with 1, 5, or 10 μM of the probes for 2 hours. After incubation, the supernatant was collected, and the absorbance was recorded at the respective absorbance maxima of the probe. This was compared with absorbance of the probe in media without cells. The percent cellular uptake was calculated as percentage of […]:
% Uptake Efficiency=1-[Asupernatant×100/Aprobe]

[7] = test system: primary mouse microglia; test: Flow cytometry analysis of probe fluorescence in live cells; type: cell-based; details: co-staining with MitoLite dye
Excerpt: FIGS. 3A-3E. […] Modal corresponds to a percentage of the maximum count. […] US Ctrl is unstained control. Gating strategy and flow plots with commercial dyes in supporting information.
A detailed protocol for the isolation and culture of primary microglia from adult mouse brains is previously described^2. Briefly, CD11^+ primary microglia were isolated from adult C57BL/6 mice aged 5-7 months of age (both male and female sexes) and cultured as follows. Mice were euthanized with CO2 following the PACUC guidelines, perfused brains were removed and cut into small pieces before homogenizing them in DPBS++with 0.4% DNase-I on the tissue dissociator at 37° C. After filtering the cells through a 70 μm filter, myelin was removed two times, first using gradient centrifugation with Percoll PLUS reagent followed by the use of myelin removal beads on the magnetic column separators. After myelin removal, CD11^+ cells were selected from the single cell suspension using the CD11^+ beads as per the manufacturer's instructions. […]
Primary mouse microglia were treated with 1, 5, or 10 μM fluorescent probes for 2 hours for the cells to uptake the probe. […] Around 10-20 thousand cells were gated from the live cells in order to analyze the cellular fluorescence signal corresponding to the LysoShine/Lysotracker or Mitoshine/MitoLite probes.

[8] = test system: primary mouse microglia; test: Confocal imaging, localization of probes in primary microglia; type: cell-based; details: 10 μM probe 2 hours, co-staining LysoTracker / MitoLite / DAPI
Experimental: A detailed protocol for the isolation and culture of primary microglia from adult mouse brains is previously described^2. Briefly, CD11^+ primary microglia were isolated from adult C57BL/6 mice aged 5-7 months of age (both male and female sexes) and cultured as follows. Mice were euthanized with CO2 following the PACUC guidelines, perfused brains were removed and cut into small pieces before homogenizing them in DPBS++with 0.4% DNase-I on the tissue dissociator at 37° C. After filtering the cells through a 70 μm filter, myelin was removed two times, first using gradient centrifugation with Percoll PLUS reagent followed by the use of myelin removal beads on the magnetic column separators. After myelin removal, CD11^+ cells were selected from the single cell suspension using the CD11^+ beads as per the manufacturer's instructions. The CD11^+ cells were finally resuspended in microglia growth media, further diluted in TIC (TGF-β, IL-34, and cholesterol containing) media containing 2% FBS before seeding 0.1×10^6 cells/500 μL/well of a 24-well plate. The cells were maintained at 37° C. and 10% CO2 with half-media change every other day until the day of compound treatment (around 12-14 div). For confocal imaging experiments, around 50,000 cells/2 mL cells were sub-cultured at the center of 35 mm glass-bottom imaging dishes (FluoroDish™ #FD35).
The localization of the fluorescent probes was visualized using confocal microscopy. The cells were incubated with 10 μM probe for 2 hours and then the media was aspirated. The cells were then incubated with 100 nM LysoTracker (1 mM stock from Thermo #L7528) or with 0.5x MitoLite (1000-fold dilution from 500x stock of AAT Bioquest #22678) for 1.5 hours. The media was aspirated, and the cells were fixed with 4% paraformaldehyde for 10 mins followed by nuclear staining with 1 μM/mL DAPI for 5 mins. For BV2 microglia grown on glass coverslips, the coverslips were removed from the wells and transferred to glass slides with a drop of anti-fade reagent (Thermo Fisher Scientific #P36930). […]

Row | SMILES | solubility in aqueous medium ([1]; aqueous medium) | solubility in DMSO: acetonitrile ([1]; mixture of DMSO: acetonitrile) | pH at which significant fluorescence is shown [2] | pKa ([3]; PBS buffer at varying pH, 1% (v/v) DMSO, probe 10 μM, room temperature) | emission maximum ([3]; excitation 480 nm, pH solutions of phosphate buffer, 1% DMSO) [nm] | pH at which high fluorescence is shown ([3]; pH buffer solutions) | absorption maximum ([3]; pH solutions of phosphate buffer, 1% DMSO) [nm] | solubility upon addition of pH solutions ([1]; final DMSO concentration 1%) | cellular metabolic activity ([4]; 1 μM) | cellular metabolic activity ([4]; 5 μM or higher) [%] | cytotoxicity (LDH release) ([5]; 2 hour, 1 and 5 μM) | cytotoxicity (LDH release) ([5]; 24 hours, 10 μM and 5 μM) | uptake efficiency [6] [%] | live cells positive for probe and MitoLite [7] | localization of the probe within cell organelles [8]
1 | CCOC(=O)C1=C(C)C2=C(c3ccc(N(C)C)cc3)c3c(C)c(C(=O)OCC)c(C=Cc4ccc(O)c([N+](=O)[O-])c4)n3[B-](F)(F)[N+]2=C1C [Compound 6b, Diethyl (E)-10-(4-(Dimethylamino)phenyl)-5,5-difluoro-3-(4-hydroxy-3-nitrostyryl)-1,7,9-trimethyl-5H-414,514-dipyrrolo[1,2-c:2′,1′-f][1,3,2]diazaborinine-2,8-dicarboxylate] | sparingly soluble | soluble | less than 6 |  |  |  |  |  |  |  |  |  |  |  | 
2 | CCOC(=O)C1=C(C)C2=C(c3ccc(NC(=O)C[P+](c4ccccc4)(c4ccccc4)c4ccccc4)cc3)c3c(C)c(C(=O)OCC)c(C)n3[B-](F)(F)[N+]2=C1C.[Br-] [MitoShine, (2-((4-(2,8-bis(ethoxycarbonyl)-5,5-difluoro-1,3,7,9-tetramethyl-5H-414,514-dipyrrolo[1,2-c:2′, 1′-f][1,3,2]diazaborinin-10-yl)phenyl)amino)-2-oxoethyl)triphenylphosphonium bromide] |  |  |  | 4.4 | 535 | 4 | 505 | maintains its solubility | high cellular metabolic activity | 10 | no cytotoxicity | around 20% | 30 | around 87% | co-localized with MitoLite; also recorded: colocalization of MitoShine in both mitochondrial as well as in lysosomal organelles
